Assay results published in patent US5210193A, “Piperazine derivatives” (American Cyanamid Company, priority 1990, dated 1993).
≈ marks a conversion by molar mass, not a printed value. Where two headings read alike, the source gives them in different places.

Assays:
Test in all cases: in vitro antibacterial MIC, agar plate dilution
Format in all cases: cell-based
[1] = test system: Enterobacter cloacae VGH 84-37; details: Enterobacter cloacae, VGH8437, 18 h, 35° C., read-out: MIC
Procedure, shortened: (§1)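 Agar plate dilution on Mueller-Hinton agar, inoculum approximately 10^4 CFU per organism applied with a Steers replicator. MIC (mcg/ml) is the lowest compound concentration inhibiting visible growth after 18 hours at 35° C.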

[2] = test system: Staphylococcus epidermidis VGH 84-40; details: VGH8440, 18 hours, 35° C., read-out: MIC
Procedure, shortened: as §1

[3] = test system: Escherichia coli PRNT 311; details: PRNT311, 18 hours, 35° C., read-out: MIC
Procedure, shortened: as §1

[4] = test system: Escherichia coli MOR 84-20; details: Escherichia coli, MOR8420, 18 h, 35° C., read-out: MIC
Procedure, shortened: as §1

[5] = test system: Staphylococcus aureus Smith; details: 35° C.
Procedure, shortened: as §1

[6] = test system: Klebsiella oxytoca MOR 84-28; details: MOR8428, 18 hours, 35° C.
Procedure, shortened: as §1

[7] = test system: Staphylococcus aureus CMC 83-128; details: CMC83128, 18 hours, 35° C., read-out: MIC
Procedure, shortened: as §1

[8] = test system: Staphylococcus epidermidis IO 83-58; details: IO8358, 18 hours, 35° C., read-out: MIC
Procedure, shortened: as §1

[9] = test system: Morganella morganii VGH 84-11; details: VGH8411, 18 hours, 35° C., read-out: MIC
Procedure, shortened: as §1

[10] = test system: Escherichia coli CMC 84-16; details: Escherichia coli, CMC8416, 18 h, 35° C., read-out: MIC
Procedure, shortened: as §1

[11] = test system: Morganella morganii MOR 84-45; details: Morganella morganii, MOR8445, 18 h, 35° C., read-out: MIC
Procedure, shortened: as §1

[12] = test system: Staphylococcus aureus CMC 83-127; details: Staphylococcus aureus, CMC83127, 18 h, 35° C., read-out: MIC
Procedure, shortened: as §1

Klebsiella pneumoniae AD = details: Klebsiella pneumoniae, 18 h, 35° C., read-out: MIC
Procedure, shortened: as §1

[13] = test system: Pseudomonas aeruginosa VGH 84-3; details: Pseudomonas aeruginosa, VGH843, 18 h, 35° C., read-out: MIC
Procedure, shortened: as §1

[14] = test system: Morganella morganii VHG 84-12; details: Morganella morganii, VHG8412, 18 h, Morganella morganii VHG 84-12 (VGH 84-12 for Example 131), 35° C., read-out: MIC
Procedure, shortened: as §1

[15] = test system: Staphylococcus aureus VGH 84-46; details: Staphylococcus aureus, VGH8446, 18 h, 35° C., read-out: MIC
Procedure, shortened: as §1

[16] = test system: Staphylococcus Spp saprophiticus VGH 84-50; details: 18 hours, 35° C., read-out: MIC
Procedure, shortened: as §1

[17] = test system: Providencia stuarti CMC 83-3; details: Providencia, CMC833, 18 h, 35° C., read-out: MIC
Procedure, shortened: as §1

[18] = test system: Streptococcus faecalis ATTC 29212; details: Enterococcus faecalis, ATTC29212, 18 hours, 35° C., read-out: MIC
Procedure, shortened: as §1

Escherichia coli NAR 311 = details: NAR311, 18 hours, 35° C., read-out: MIC
Procedure, shortened: as §1

[19] = test system: Serratia marcescens F 0-35; details: Serratia marcescens, F035, 18 h, 35° C., read-out: MIC
Procedure, shortened: as §1

[20] = test system: Streptococcus faecalis UCI 85-30; details: Enterococcus faecalis, UCI8530, 18 h, 35° C., read-out: MIC
Procedure, shortened: as §1

[21] = test system: Streptococcus faecalis VGH 84-65; details: Enterococcus faecalis, VGH8465, 18 h, 35° C., read-out: MIC
Procedure, shortened: as §1

[22] = test system: Enterobacter cloacae K 84-10; details: Enterobacter cloacae, K8410, 18 h, 35° C., read-out: MIC
Procedure, shortened: as §1

[23] = Staphylococcus aureus, 18 h, read-out: MIC

SMILES | MIC [4] | MIC [11] | MIC [13] | MIC [14] | MIC [17] | MIC [20] | MIC [5, 23] | MIC [21] | MIC [22] | further results
O=C(O)c1cn(C2CC2)c2cc(N3CCNC(c4ccco4)C3)c(F)cc2c1=O (stereo not shown) [Example 62, 1-Cyclopropyl-6-fluoro-7-[3-(2-furanvl)-1-piperazinyl]-1,4-dihydro-4-oxo-3-quinolinecarboxylic acid] | 0.06 µg/mL (≈ 0.151 µM) | 0.12 µg/mL (≈ 0.302 µM) | > 16 µg/mL | 0.5 µg/mL (≈ 1.26 µM) | 16 µg/mL (≈ 40.3 µM) | 1 µg/mL (≈ 2.52 µM) |  |  |  | MIC [1]: 0.03 µg/mL (≈ 0.0755 µM); MIC [2]: 0.03 µg/mL (≈ 0.0755 µM); MIC [3]: 0.06 µg/mL (≈ 0.151 µM); MIC ([5]; 18 hours): 0.015 µg/mL (≈ 0.0377 µM); MIC [6]: 0.06 µg/mL (≈ 0.151 µM); MIC [7]: 0.03 µg/mL (≈ 0.0755 µM); MIC [8]: 0.015 µg/mL (≈ 0.0377 µM); MIC [9]: 0.06 µg/mL (≈ 0.151 µM); MIC [10]: 0.03 µg/mL (≈ 0.0755 µM); MIC [12]: 0.008 µg/mL (≈ 0.0201 µM); MIC (Klebsiella pneumoniae AD): 0.12 µg/mL (≈ 0.302 µM); MIC [15]: 0.015 µg/mL (≈ 0.0377 µM); MIC [16]: 0.12 µg/mL (≈ 0.302 µM); MIC [18]: 0.25 µg/mL (≈ 0.629 µM); MIC (Escherichia coli NAR 311): 0.5 µg/mL (≈ 1.26 µM); MIC [19]: 0.06 µg/mL (≈ 0.151 µM)
O=C(O)c1cn(C2CC2)c2cc(N3CCNC(c4ccoc4)C3)c(F)cc2c1=O (stereo not shown) [Example 92] | 0.06 µg/mL (≈ 0.151 µM) | 0.12 µg/mL (≈ 0.302 µM) | 16 µg/mL (≈ 40.3 µM) | 0.25 µg/mL (≈ 0.629 µM) | 8 µg/mL (≈ 20.1 µM) | 1 µg/mL (≈ 2.52 µM) | 0.03 µg/mL (≈ 0.0755 µM) | 0.5 µg/mL (≈ 1.26 µM) | 0.06 µg/mL (≈ 0.151 µM) | 
CCn1cc(C(=O)O)c(=O)c2cc(F)c(N3CCNC(c4ccoc4)C3)cc21 (stereo not shown) [Example 94, 1-Ethyl-6-fluoro-1,4-dihydro-4-oxo-7-[3-(3-furanyl)-1-piperazinyl]-3-quinolinecarboxylic acid] | 0.25 µg/mL (≈ 0.649 µM) | 0.12 µg/mL (≈ 0.311 µM) | > 16 µg/mL | 1 µg/mL (≈ 2.59 µM) | 16 µg/mL (≈ 41.5 µM) | 4 µg/mL (≈ 10.4 µM) | 0.12 µg/mL (≈ 0.311 µM) | 2 µg/mL (≈ 5.19 µM) | 0.25 µg/mL (≈ 0.649 µM) | 
CCn1cc(C(=O)O)c(=O)c2cc(F)c(N3CCN(C)C(c4ccn(C)n4)C3)cc21 (stereo not shown) [Example 109, 1-Ethyl-6-fluoro-1,4-dihydro-7-[4-methyl-3-(1-methyl-1H-pyrazol-3-yl) -1-piperazinyl]-4-oxo-3-quinolinecarboxylic acid] | > 16 µg/mL | > 16 µg/mL | > 16 µg/mL | > 16 µg/mL | > 16 µg/mL | > 16 µg/mL | 0.25 µg/mL (≈ 0.605 µM) | 16 µg/mL (≈ 38.7 µM) | 16 µg/mL (≈ 38.7 µM) | 
CCn1cc(C(=O)O)c(=O)c2cc(F)c(N3CCN(C)C(c4ccnn4C)C3)cc21 (stereo not shown) [Example 110, 1-Ethyl-6-fluoro-1,4-dihydro-7-[4-methyl-3-(1-methyl-1H-pyrazol-5-yl) -1-piperazinyl]-4-oxo-3-quinolinecarboxylic acid] | 4 µg/mL (≈ 9.67 µM) | 8 µg/mL (≈ 19.3 µM) | > 16 µg/mL | > 16 µg/mL | > 16 µg/mL | > 16 µg/mL | 0.25 µg/mL (≈ 0.605 µM) | 8 µg/mL (≈ 19.3 µM) | 4 µg/mL (≈ 9.67 µM) | 
